This passage reports inhibition results from article PMC3639963, “A New Class of Small Molecule Inhibitor of BMP Signaling” (PLoS ONE, 2013).

Broadly, the inhibition is the change of the read-out against control, counted positive when it falls.

Common to all, as to assay: Nanosyn kinase profiling
What all share (assay type): biochemical
Details in all cases: read-out: Percentage inhibition; for inhibition at 0.1 µM: 0.1 µM inhibitor; for inhibition at 1 µM: 1 µM inhibitor

The target in one assay is T1, RET (Homo sapiens, UniProt P07949).
T1 construct: purchased Nanosyn (enzymatic panel); SGC in-house recombinant human kinases (DSF panel); Invitrogen (ALK1-6)
T1 sequence (P07949 29-1114): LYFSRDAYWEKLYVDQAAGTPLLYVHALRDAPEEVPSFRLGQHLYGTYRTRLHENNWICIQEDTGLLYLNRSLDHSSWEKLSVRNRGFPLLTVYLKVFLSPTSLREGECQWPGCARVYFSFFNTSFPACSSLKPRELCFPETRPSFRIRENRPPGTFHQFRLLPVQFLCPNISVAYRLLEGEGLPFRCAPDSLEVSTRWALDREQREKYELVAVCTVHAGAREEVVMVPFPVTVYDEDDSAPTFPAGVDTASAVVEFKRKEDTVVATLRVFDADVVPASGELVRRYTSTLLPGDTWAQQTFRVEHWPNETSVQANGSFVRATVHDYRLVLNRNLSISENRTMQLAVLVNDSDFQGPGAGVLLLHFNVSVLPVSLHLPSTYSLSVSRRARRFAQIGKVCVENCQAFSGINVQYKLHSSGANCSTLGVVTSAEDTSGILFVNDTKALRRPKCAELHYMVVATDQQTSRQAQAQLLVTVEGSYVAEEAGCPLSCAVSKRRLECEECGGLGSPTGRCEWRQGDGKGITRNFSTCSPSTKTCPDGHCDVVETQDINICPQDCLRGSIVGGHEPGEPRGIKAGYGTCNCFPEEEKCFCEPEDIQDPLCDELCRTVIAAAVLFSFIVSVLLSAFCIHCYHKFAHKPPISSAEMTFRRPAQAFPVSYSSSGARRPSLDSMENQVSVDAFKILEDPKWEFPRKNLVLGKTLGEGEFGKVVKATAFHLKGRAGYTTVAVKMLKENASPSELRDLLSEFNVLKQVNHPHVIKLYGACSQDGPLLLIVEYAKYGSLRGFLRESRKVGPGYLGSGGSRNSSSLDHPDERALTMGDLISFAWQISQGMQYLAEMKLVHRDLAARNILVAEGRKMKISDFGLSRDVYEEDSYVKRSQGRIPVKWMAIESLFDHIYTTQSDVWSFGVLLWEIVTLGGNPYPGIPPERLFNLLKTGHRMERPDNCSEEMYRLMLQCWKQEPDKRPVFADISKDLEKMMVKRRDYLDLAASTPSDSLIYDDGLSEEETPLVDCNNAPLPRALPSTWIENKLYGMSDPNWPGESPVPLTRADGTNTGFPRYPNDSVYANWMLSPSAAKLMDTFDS
The procedure, abridged: (§1)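 Percent inhibition of each kinase was measured with the inhibitor at 0.1 µM and at 1 µM, as part of a 200-kinase human selectivity panel.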

The next assay deals with T2, NEK2 (Homo sapiens, UniProt P51955).
T2 construct: purchased Nanosyn (enzymatic panel); SGC in-house recombinant human kinases (DSF panel); Invitrogen (ALK1-6)
T2 sequence (P51955 1-445): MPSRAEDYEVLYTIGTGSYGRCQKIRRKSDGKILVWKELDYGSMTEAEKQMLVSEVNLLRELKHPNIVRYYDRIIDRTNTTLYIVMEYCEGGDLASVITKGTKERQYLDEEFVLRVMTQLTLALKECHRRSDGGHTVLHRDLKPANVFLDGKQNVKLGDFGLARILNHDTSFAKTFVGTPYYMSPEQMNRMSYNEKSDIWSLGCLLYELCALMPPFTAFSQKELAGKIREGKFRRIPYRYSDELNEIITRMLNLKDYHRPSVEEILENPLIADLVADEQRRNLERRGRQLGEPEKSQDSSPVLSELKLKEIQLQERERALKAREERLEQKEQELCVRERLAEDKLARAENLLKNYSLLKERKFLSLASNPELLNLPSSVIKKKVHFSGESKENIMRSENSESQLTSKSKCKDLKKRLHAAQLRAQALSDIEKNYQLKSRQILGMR
In short, it runs like this:
as §1

The next assay has as its target T3, IGF1R (Homo sapiens, UniProt P08069).
T3 construct: purchased Nanosyn (enzymatic panel); SGC in-house recombinant human kinases (DSF panel); Invitrogen (ALK1-6)
The procedure, abridged:
as §1

A further assay concerns the target T4, CHEK1 (Homo sapiens, UniProt O14757).
T4 construct: purchased Nanosyn (enzymatic panel); SGC in-house recombinant human kinases (DSF panel); Invitrogen (ALK1-6)
T4 sequence (O14757 1-476): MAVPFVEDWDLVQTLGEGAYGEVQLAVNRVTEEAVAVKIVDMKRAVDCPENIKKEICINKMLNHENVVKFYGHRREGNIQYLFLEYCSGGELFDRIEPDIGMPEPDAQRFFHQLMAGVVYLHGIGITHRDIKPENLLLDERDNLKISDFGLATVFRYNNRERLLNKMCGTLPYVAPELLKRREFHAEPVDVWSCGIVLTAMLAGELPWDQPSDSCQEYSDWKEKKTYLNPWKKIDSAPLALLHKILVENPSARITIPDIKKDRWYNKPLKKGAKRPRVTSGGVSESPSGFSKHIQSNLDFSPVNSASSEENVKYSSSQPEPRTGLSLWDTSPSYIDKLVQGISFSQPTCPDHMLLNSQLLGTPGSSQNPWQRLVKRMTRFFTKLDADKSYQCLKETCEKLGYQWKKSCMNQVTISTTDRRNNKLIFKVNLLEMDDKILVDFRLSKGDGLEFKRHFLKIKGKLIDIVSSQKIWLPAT
The procedure, abridged: as §1

The target in another assay is T5, NEK1 (Homo sapiens, UniProt Q96PY6).
T5 construct: purchased Nanosyn (enzymatic panel); SGC in-house recombinant human kinases (DSF panel); Invitrogen (ALK1-6)
T5 sequence (Q96PY6 1-1258): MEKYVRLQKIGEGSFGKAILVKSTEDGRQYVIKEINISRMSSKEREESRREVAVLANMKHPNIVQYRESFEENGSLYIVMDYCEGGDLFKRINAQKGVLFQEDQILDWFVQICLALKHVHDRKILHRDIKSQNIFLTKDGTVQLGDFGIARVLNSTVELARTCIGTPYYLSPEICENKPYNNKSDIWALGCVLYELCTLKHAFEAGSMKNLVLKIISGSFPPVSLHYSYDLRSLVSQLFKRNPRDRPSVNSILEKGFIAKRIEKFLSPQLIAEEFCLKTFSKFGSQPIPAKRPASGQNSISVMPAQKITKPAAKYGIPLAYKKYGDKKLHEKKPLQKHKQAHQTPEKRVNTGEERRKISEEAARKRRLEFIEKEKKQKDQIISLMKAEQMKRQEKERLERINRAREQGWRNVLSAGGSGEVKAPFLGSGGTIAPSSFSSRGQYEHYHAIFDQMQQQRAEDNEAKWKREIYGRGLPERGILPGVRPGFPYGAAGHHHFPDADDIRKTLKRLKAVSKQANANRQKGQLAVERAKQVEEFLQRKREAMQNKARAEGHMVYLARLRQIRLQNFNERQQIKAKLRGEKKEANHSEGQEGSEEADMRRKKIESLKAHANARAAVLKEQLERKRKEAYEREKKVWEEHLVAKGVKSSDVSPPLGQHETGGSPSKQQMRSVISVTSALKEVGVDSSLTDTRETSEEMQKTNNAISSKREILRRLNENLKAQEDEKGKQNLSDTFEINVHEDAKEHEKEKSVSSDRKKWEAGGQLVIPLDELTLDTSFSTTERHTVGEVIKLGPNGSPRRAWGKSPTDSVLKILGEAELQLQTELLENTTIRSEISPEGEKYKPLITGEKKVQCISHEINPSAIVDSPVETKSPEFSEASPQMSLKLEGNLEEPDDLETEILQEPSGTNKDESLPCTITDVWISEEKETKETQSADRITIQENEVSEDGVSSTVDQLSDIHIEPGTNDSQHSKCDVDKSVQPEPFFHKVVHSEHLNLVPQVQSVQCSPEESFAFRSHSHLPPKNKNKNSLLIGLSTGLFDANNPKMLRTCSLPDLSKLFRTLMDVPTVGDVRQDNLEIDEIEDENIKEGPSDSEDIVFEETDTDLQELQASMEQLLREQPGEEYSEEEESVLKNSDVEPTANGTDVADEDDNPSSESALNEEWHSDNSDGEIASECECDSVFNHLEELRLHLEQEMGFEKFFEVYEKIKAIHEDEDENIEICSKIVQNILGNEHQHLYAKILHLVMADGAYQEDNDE
In short, it runs like this:
as §1

The target in another assay is T6, FER (Homo sapiens, UniProt P16591).
T6 construct: purchased Nanosyn (enzymatic panel); SGC in-house recombinant human kinases (DSF panel); Invitrogen (ALK1-6)
T6 sequence (P16591 whole entry): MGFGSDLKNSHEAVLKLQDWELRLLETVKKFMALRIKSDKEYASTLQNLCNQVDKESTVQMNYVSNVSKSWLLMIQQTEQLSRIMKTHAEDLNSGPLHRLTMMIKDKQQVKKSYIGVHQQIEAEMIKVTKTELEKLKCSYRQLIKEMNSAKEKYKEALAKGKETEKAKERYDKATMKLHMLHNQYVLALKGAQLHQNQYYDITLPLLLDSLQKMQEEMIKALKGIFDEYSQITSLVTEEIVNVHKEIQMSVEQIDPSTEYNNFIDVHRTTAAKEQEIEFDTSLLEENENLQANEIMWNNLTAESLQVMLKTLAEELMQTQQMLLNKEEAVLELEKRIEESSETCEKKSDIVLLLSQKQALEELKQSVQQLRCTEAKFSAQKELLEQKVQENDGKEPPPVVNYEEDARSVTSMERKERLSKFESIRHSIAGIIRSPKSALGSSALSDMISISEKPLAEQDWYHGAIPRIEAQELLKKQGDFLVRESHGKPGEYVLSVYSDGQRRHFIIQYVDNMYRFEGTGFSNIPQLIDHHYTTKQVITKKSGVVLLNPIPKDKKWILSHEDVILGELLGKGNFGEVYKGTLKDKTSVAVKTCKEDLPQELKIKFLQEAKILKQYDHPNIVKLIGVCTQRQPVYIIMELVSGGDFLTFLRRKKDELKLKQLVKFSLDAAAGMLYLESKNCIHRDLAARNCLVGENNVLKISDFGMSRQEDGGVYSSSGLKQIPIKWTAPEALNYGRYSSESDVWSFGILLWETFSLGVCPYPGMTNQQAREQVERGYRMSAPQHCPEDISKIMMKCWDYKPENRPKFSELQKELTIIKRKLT
The procedure, abridged:
as §1

T3 sequence (P08069 31-1367): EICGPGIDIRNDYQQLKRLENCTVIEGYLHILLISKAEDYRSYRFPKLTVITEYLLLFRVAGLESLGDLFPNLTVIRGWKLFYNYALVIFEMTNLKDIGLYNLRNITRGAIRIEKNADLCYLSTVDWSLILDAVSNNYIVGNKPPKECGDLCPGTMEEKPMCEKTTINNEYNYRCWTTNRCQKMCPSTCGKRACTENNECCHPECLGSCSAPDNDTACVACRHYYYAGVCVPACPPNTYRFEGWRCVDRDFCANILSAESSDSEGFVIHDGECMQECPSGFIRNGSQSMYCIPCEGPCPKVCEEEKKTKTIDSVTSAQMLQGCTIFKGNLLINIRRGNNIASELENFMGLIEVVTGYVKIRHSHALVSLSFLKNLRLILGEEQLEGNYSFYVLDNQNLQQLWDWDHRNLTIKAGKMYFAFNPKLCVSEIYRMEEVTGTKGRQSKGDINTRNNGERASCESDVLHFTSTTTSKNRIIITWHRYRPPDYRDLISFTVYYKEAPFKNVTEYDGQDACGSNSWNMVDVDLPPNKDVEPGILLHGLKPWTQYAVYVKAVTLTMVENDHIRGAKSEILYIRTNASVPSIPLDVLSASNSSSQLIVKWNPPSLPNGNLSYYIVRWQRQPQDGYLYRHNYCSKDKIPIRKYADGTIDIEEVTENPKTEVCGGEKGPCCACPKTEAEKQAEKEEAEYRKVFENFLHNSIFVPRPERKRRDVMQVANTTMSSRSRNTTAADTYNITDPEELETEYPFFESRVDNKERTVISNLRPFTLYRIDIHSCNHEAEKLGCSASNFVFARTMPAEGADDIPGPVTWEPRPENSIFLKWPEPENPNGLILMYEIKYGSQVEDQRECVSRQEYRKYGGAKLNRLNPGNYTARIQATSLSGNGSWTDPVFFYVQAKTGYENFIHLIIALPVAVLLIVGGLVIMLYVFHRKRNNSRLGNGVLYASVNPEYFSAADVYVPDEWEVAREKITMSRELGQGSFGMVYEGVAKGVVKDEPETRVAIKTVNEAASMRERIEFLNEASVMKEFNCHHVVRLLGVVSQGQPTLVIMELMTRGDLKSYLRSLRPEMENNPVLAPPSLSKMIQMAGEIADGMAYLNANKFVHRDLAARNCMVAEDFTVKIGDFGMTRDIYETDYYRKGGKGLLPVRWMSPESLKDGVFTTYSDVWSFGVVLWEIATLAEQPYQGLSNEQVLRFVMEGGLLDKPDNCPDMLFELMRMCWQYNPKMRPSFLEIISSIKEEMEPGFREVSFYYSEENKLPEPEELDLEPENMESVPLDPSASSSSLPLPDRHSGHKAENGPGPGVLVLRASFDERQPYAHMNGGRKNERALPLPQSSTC

For `c1ccc2c(-c3cnn4cc(-c5ccc(N6CCNCC6)cc5)cnc34)ccnc2c1` [LDN-193189], the inhibition at 0.1 µM at RET was 4%; on NEK2 it was 2.8%; at IGF1R, 4.1%; at CHEK1, 2.9%; at NEK1, 2.1%; on FER it was 2.8%. Further, the inhibition at 1 µM on RET turned out to be 16%; at NEK2 it was 1.2%; on IGF1R it was 5.4%; on CHEK1 it was 0.3%; on NEK1, 3.4%; on FER, 3.7%.
As for `COc1cc(-c2cc(-c3cccc(O)c3)cnc2N)cc(OC)c1OC` [K02288, 3-[6-amino-5-(3,4,5-trimethoxy-phenyl)-pyridin-3-yl]-phenol], the inhibition at 0.1 µM on RET is 2.1%; at NEK2 it was -2%; at IGF1R, -3%; on CHEK1 it was -1%; on NEK1, -1%; at FER it was 0.8%. Also, the inhibition at 1 µM at RET is 3.9%; at NEK2 it was -2%; at IGF1R, -1%; at CHEK1, -2%; on NEK1 it was 0.8%; at FER it was 7.5%.
